According to patent publication US20140057842A1, “COMPOSITIONS AND METHODS FOR CELL HOMING AND ADIPOGENESIS” (The Trustees of Columbia University in the City of New York, priority 2010, published 2014):

What was measured:
hADSCs [1] = experiment: Leptin content of hADSCs at two and four weeks post-treatment; type: cell-based, human; settings: ADM plus 2 μM Pyrintegrin
Protocol: (§1) At two and four weeks post-treatment, Leptin content was measured in hADSCs treated with: control medium; adipogenic differentiation medium (ADM); ADM plus 10 μM of Notch gamma Secretase Inhibitor (Inh1) (ADM+Inh1); ADM plus 10 μM of MAPK Inhibitor (Inh2) (ADM+Inh2); and ADM plus 10 μM of Inh1 and Inh2 (ADM+Inh1, 2).
At two and four weeks post-treatment, Leptin content was measured in hADSCs treated with: control medium; adipogenic differentiation medium (ADM); and ADM plus 2 μM of Pyrintegrin (ADM+Drug).

hADSCs [2] = experiment: Lipid staining / brightfield images of hADSCs four weeks post-treatment; type: cell-based, human; settings: ADM plus Pyrintegrin, compared with ADM alone
Protocol: Brightfield images were produced four weeks post-treatment of hADSCs with: (A) ADM; (B) ADM+Inh1; (C) ADM+Inh2; and (D) ADM+Inh1, 2 (see e.g., FIG. 6 A-D).
Lipid staining was performed four weeks post-treatment of hADSCs with: (A) ADM; and (B) ADM plus Pyrintegrin (ADM+Pyrintegrin).

hADSCs [3] = experiment: PPARγ expression of hADSCs followed for 28 days; type: cell-based, human; settings: ADM plus 2 μM Pyrintegrin, compared with ADM alone
Protocol: (§2) Change in PPARγ expression of hADSCs were followed for 28 days. hADSCs were treated with: control medium; adipogenic differentiation medium (ADM); ADM plus 10 μM of Notch gamma Secretase Inhibitor (Inh1) (ADM+Inh1); ADM plus 10 μM of MAPK Inhibitor (Inh2) (ADM+Inh2); and ADM plus 10 μM of Inh1 and Inh2 (ADM+Inh1, 2).
PPARγ expression was measured for 28 days in hADSCs treated with: control medium; adipogenic differentiation medium (ADM); and ADM plus 2 μM of Pyrintegrin (ADM+Pyrintegrin).

BMP pathway = experiment: Western blot analysis of hADSCs 1-hour post-treatment, phosphorylation of Smad1/5/8; type: cell-based, human; settings: 2 μM with ADM or alone
Protocol: (§3) Western blot analysis was performed 1-hour post-treatment in hADSCs treated with: control medium (Control); adipogenic differentiation medium (ADM); ADM plus 2 μM of Pyrintegrin (ADM+Drug); and Pyrintegrin alone (Drug).

hADSCs [4] = experiment: C/EBPα expression of hADSCs followed for 28 days; type: cell-based, human; settings: ADM plus 2 μM Pyrintegrin, compared with ADM alone
Protocol: as §2, with “C/EBPα” for “PPARγ”
C/EBPα expression was measured for 28 days in hADSCs treated with: control medium; adipogenic differentiation medium (ADM); and ADM plus 2 μM of Pyrintegrin (ADM+Pyrintegrin).

hADSCs [5] = experiment: PPARγ and C/EBPα gene expression of hADSCs four days post-treatment with Pyrintegrin without ADM; type: cell-based, human; settings: control medium plus 2 μM or 10 μM Pyrintegrin
Protocol: PPARγ and C/EBPα gene expression was measured at four days post-treatment in hADSCs treated with: control medium (Control); control medium plus 2 μM of Pyrintegrin (Control+Drug 2 μM); control medium plus 10 μM of Pyrintegrin (Control+Drug 10 μM) and adipogenic medium (ADM).

hADSCs [6] = experiment: Adiponectin content of hADSCs at two and four weeks post-treatment; type: cell-based, human; settings: ADM plus 2 μM Pyrintegrin
Protocol: as §1, with “Adiponectin” for “Leptin”, “measure” for “measured”, “(ADM+Inh2),” for “(ADM+Inh2);”
At two and four weeks post-treatment, Adiponectin content was measured in hADSCs treated with: control medium; adipogenic differentiation medium (ADM); and ADM plus 2 μM of Pyrintegrin (ADM+Drug).

TGFβ/Activin pathway = experiment: Western blot analysis of hADSCs 1-hour post-treatment, TGFβ/Activin pathway; type: cell-based, human; settings: 2 μM with ADM or alone
Protocol: as §3

hADSCs [7] = experiment: Glycerol content of hADSCs at two and four weeks post-treatment; type: cell-based, human; settings: ADM plus 2 μM Pyrintegrin
Protocol: At two and four weeks post-treatment, Glycerol content was measured in hADSCs treated with: control medium; adipogenic differentiation medium (ADM); and ADM plus 2 μM of Pyrintegrin (ADM+Drug).

[8] = test system: adipocyte stem cells (ASCs); experiment: Adipogenesis of adipocyte stem cells treated with EGFR antagonist (marker expression, glycerol and leptin contents); type: cell-based; settings: 50 ng/mL in adipogenic medium
Text: Together, the adipogenic differentiation capacity of ASCs was restored to a similar level to without HSC co-culture.

## O=S(=O)(NCC1CC1)c1ccc(Nc2nccc(N3CCCc4cc(O)ccc43)n2)cc1 [Pyrintegrin, N-(Cyclopropylmethyl)-4-(4-(6-hydroxy-3,4-dihydroquinolin-1-(2H)-yl)pyrimidin-2-ylamino)benzenesulfonamide]
hADSCs [1]
  secretion of Leptin cytokine by hADSCs: enhanced the secretion of Leptin cytokine
hADSCs [2]
  lipid accumulation in hADSCs: more potent in inducing lipid accumulation
hADSCs [3]
  PPARγ expression in hADSCs: more potent in inducing PPARγ expression
BMP pathway
  phosphorylation of Smad1/5/8 (BMP pathway): prevents the phosphorylation of Smad1/5/8
hADSCs [4]
  C/EBPα expression in hADSCs: more potent in inducing C/EBPα expression
hADSCs [5]
  adipogenic differentiation of hADSCs (PPARγ and C/EBPα gene expression): can induce hADSCs towards an adipogenic differentiation pathway
hADSCs [6]
  secretion of Adiponectin cytokine by hADSCs: enhanced the secretion of Adiponectin cytokine
TGFβ/Activin pathway
  TGFβ/Activin pathway inhibition: does not target the TGFβ/Activin pathway
hADSCs [7]
  secretion of Glycerol by hADSCs: enhanced the secretion of Glycerol

## EGF: EGF added at 50 ng/mL to the adipogenic medium (NSDSECPLSHDGYCLHDGVCMYIEALDKYACNCVVGYIGERCQYRDLKWWELR; UniProt P01133 971-1023, looked up)
[8]
  adipogenesis of ASCs on addition of EGF to the adipogenic medium: further inhibited adipogenesis
